Tests used:
Format in all cases: in vivo
Design in all cases: key: 0: no effect; 10-25% kill; 26-35% kill; 36-45% kill; 46-55% kill; 56-65% kill; 66-75% kill; 76-85% kill; 86-99% kill; 9: 100% kill
[1] = tested on: Heliothis virescens, egg, tobacco budworm; assay: Tobacco budworm egg test, dipped cotton leaf and eggs; settings: mortality rating after 3 days
How it was run: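 Scoring is by mortality counts after 3 days, graded on a rating scale. Tobacco budworm eggs (6-30 h old) on cheesecloth and a young cotton leaf were each dipped about 3 s in the test suspension. Suspensions were made from a 10,000 ppm stock in 35% acetone/water with further water dilutions.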

[2] = tested on: Spodoptera eridania, 3rd instar larvae, southern armyworm; assay: Southern armyworm 3rd instar test, dipped limabean leaf; settings: for ARMYWORM Day 3: rating at 3 days; for ARMYWORM Day 5: rating at 5 days
How it was run: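 Ten 3rd instar larvae fed on limabean leaves that had been dipped for 3 s in test solution and dried. Test solutions were diluted in water from a 10,000 ppm stock in 35% acetone/water. Ratings at days 3 and 5 covered death, feeding reduction and abnormal molting.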

[3] = tested on: Spodoptera eridania, 3rd instar larvae, southern armyworm; assay: Southern armyworm 7-day residual test; settings: R designates Residual: 7-day residual foliage, concentration not given; for ARMYWORM Day 3 R: rating at 3 days; for ARMYWORM Day 5 R: rating at 5 days
How it was run: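 Third-instar southern armyworm larvae were exposed to lima bean foliage that had been treated, then held 7 days under greenhouse lamps simulating bright sun for 14 h per day. Treatment solutions were diluted in water from a 10,000 ppm stock in 35% acetone. Results are scale ratings.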

[4] = tested on: Diabrotic undecimpunctata howardi, 3rd instar southern corn rootworm; assay: Southern corn rootworm soil test; settings: mortality rating after 6 days
How it was run: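 Soil test with ten 3rd instar larvae per jar, mortality read after 6 days and missing larvae counted as dead; scores on a rating scale. Doses were 1.25 and 0.25 mg a.i. per jar, corresponding to roughly 50 and 10 kg/ha, loaded on talc from acetone and mixed into moist soil with millet seed as food.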

[5] = tested on: Tetranychus urticae (OP-resistant strain), 2-spotted spider mite; assay: 2-spotted spider mite test, dipped infested limabean plants
How it was run: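 Compound dissolved at 10,000 ppm in 35% aqueous acetone, then water-diluted; limabean primary leaves carrying ~100 OP-resistant mites each are dipped 3 s and dried. Adult mortality read on one leaf after 2 days, eggs/newly emerged nymphs on another after 5 days, scored by rating scale.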

[6] = tested on: Empoasca abrupta, adult, western potato leafhopper; assay: Western potato leafhopper systemic uptake test; settings: 100 ppm
How it was run: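 Leafhopper mortality, rated on a scale, scored 2 days after about 10 adults were confined with a leaf in a moist dish. The leaf came from a cut lima bean stem that had taken up the compound emulsion (100 ppm and 10-fold dilutions) over 3 days at 27 °C.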

[7] = 300 ppm, adult mites, rating scale 0-9
[8] = 300 ppm, mite eggs, rating scale 0-9
[9] = 300 ppm, mite nymphs, rating scale 0-9
[10] = systemic uptake, rating scale 0-9
[11] = 10 ppm, adult mites, rating scale 0-9
[12] = 10 ppm, mite eggs, rating scale 0-9
[13] = 10 ppm, mite nymphs, rating scale 0-9
[14] = 100 ppm, adult mites, rating scale 0-9
[15] = 100 ppm, mite eggs, rating scale 0-9
[16] = 100 ppm, mite nymphs, rating scale 0-9
[17] = 300 ppm, mortality rating after 2 days
[18] = cut stem in emulsion 3 days, mortality rating after 2 days

SMILES | TOBACCO BUDWORM Egg ([1]; 1000 ppm) | ARMYWORM Day 3 ([2]; 100 ppm) | ARMYWORM Day 3 ([2]; 1000 ppm) | ARMYWORM Day 3 R [3] | ARMYWORM Day 5 R [3] | SOUTHERN CORN ROOTWORM ([4]; 50 (ppm as headed)) | OP-RESISTANT MITES Adult [5, 7] | OP-RESISTANT MITES Egg [5, 8] | OP-RESISTANT MITES Nymph [5, 9] | LEAFHOPPER Systemic [6, 10] | ARMYWORM Day 3 ([2]; 10 ppm) | ARMYWORM Day 5 ([2]; 10 ppm) | ARMYWORM Day 5 ([2]; 100 ppm) | ARMYWORM Day 5 ([2]; 1000 ppm) | OP-RESISTANT MITES Nymph [5, 13] | TOBACCO BUDWORM Egg ([1]; 100 ppm) | SOUTHERN CORN ROOTWORM ([4]; 10 (ppm as headed)) | OP-RESISTANT MITES Egg ([5]; 300 ppm, rating after 5 days) | LEAFHOPPER Systemic [6, 18] | also measured
N#Cc1c(Br)c(Br)n(CSC2=NCCCN2)c1Br [Example 13] | 0 | 0 | 9 (100% kill) | 0 | 7 (76-85% kill) | 0 | 5 (56-65% kill) | 0 | 0 | 0 |  |  |  |  |  |  |  |  |  | 
CN=C(NC)SCn1c(Cl)c(C#N)c(Cl)c1-c1ccc(Cl)c(Cl)c1 [Example 19] | 0 | 9 (100% kill) | 9 (100% kill) | 9 (100% kill) | 9 (100% kill) | 0 | 5 (56-65% kill) | 0 | 0 | 0 | 0 | 0 | 9 (100% kill) | 9 (100% kill) |  |  |  |  |  | 
N=C(N)SCn1c(-c2ccc(Cl)c(Cl)c2)c(Br)c(C(F)(F)F)c1C(F)(F)F [Example 18] | 0 | 9 (100% kill) | 9 (100% kill) | 9 (100% kill) | 9 (100% kill) | 0 | 9 (100% kill) | 0 | 0 | 0 | 0 | 0 | 9 (100% kill) | 9 (100% kill) | 0 |  |  |  |  | OP-RESISTANT MITES Adult [5, 11]: 0; OP-RESISTANT MITES Egg [5, 12]: 0; OP-RESISTANT MITES Adult [5, 14]: 9 (100% kill); OP-RESISTANT MITES Egg [5, 15]: 0; OP-RESISTANT MITES Nymph [5, 16]: 0
FC(F)(F)c1c(Br)c(-c2ccc(Cl)c(Cl)c2)n(CSC2=NCCCN2)c1C(F)(F)F [Example 17] | 0 | 9 (100% kill) | 9 (100% kill) | 9 (100% kill) | 9 (100% kill) | 7 (76-85% kill) | 7 (76-85% kill) | 0 | 0 | 0 | 9 (100% kill) | 9 (100% kill) | 9 (100% kill) | 9 (100% kill) | 0 |  |  |  |  | OP-RESISTANT MITES Adult [5, 11]: 0; OP-RESISTANT MITES Egg [5, 12]: 0; OP-RESISTANT MITES Adult [5, 14]: 0; OP-RESISTANT MITES Egg [5, 15]: 7 (76-85% kill); OP-RESISTANT MITES Nymph [5, 16]: 0
CN(C)C(=S)SCn1c(-c2ccc(Cl)cc2)c(C#N)c(Cl)c1C(F)(F)F [Example 21] | 0 | 9 (100% kill) | 9 (100% kill) | 9 (100% kill) | 9 (100% kill) | 9 (100% kill) |  |  |  |  | 9 (100% kill) | 9 (100% kill) | 9 (100% kill) | 9 (100% kill) |  | 0 | 0 | 0 | 0 | SOUTHERN CORN ROOTWORM ([4]; 1 (ppm as headed)): 0; OP-RESISTANT MITES Adult ([5]; 10 ppm, mortality rating after 2 days): 9 (100% kill); OP-RESISTANT MITES Egg ([5]; 10 ppm, rating after 5 days): 0; OP-RESISTANT MITES Nymph ([5]; 10 ppm, rating after 5 days): 0; OP-RESISTANT MITES Adult ([5]; 100 ppm, mortality rating after 2 days): 9 (100% kill); OP-RESISTANT MITES Egg ([5]; 100 ppm, rating after 5 days): 8 (86-99% kill); OP-RESISTANT MITES Nymph ([5]; 100 ppm, rating after 5 days): 0; OP-RESISTANT MITES Adult [5, 17]: 9 (100% kill); OP-RESISTANT MITES Nymph ([5]; 300 ppm, rating after 5 days): 9 (100% kill)
CCOC(=S)SCn1c(-c2ccc(Cl)c(Cl)c2)c(Br)c(C(F)(F)F)c1C(F)(F)F [Example 35] | 0 | 9 (100% kill) | 9 (100% kill) | 9 (100% kill) | 9 (100% kill) | 0 |  | 0 | 0 | 0 | 9 (100% kill) | 9 (100% kill) | 9 (100% kill) | 9 (100% kill) | 0 |  |  |  |  | 
CN=C(NC)SCn1c(-c2ccc(Cl)cc2)c(C#N)c(Cl)c1C(F)(F)F [Example 2] | 0 | 9 (100% kill) | 9 (100% kill) | 9 (100% kill) | 9 (100% kill) | 8 (86-99% kill) |  |  |  |  | 9 (100% kill) | 9 (100% kill) | 9 (100% kill) | 9 (100% kill) |  | 0 | 0 | 0 | 0 | SOUTHERN CORN ROOTWORM ([4]; 1 (ppm as headed)): 0; OP-RESISTANT MITES Egg ([5]; 10 ppm, rating after 5 days): 0; OP-RESISTANT MITES Egg ([5]; 100 ppm, rating after 5 days): 9 (100% kill)
CSCn1c(-c2ccc(Cl)cc2)c(C#N)c(Br)c1C(F)(F)F [Example 25] | 0 | 9 (100% kill) | 9 (100% kill) | 9 (100% kill) | 9 (100% kill) | 0 |  |  |  |  | 0 | 0 | 9 (100% kill) | 9 (100% kill) |  |  | 0 | 0 | 0 | OP-RESISTANT MITES Adult [5, 17]: 7 (76-85% kill); OP-RESISTANT MITES Nymph ([5]; 300 ppm, rating after 5 days): 0
N#Cc1c(Br)c(C(F)(F)F)n(CSC2=NCCS2)c1-c1ccc(Cl)cc1 [Example 16] | 0 | 9 (100% kill) | 9 (100% kill) | 9 (100% kill) | 9 (100% kill) | 9 (100% kill) | 0 | 0 | 0 | 0 | 9 (100% kill) | 9 (100% kill) | 9 (100% kill) | 9 (100% kill) |  | 0 |  |  |  | 

From patent EP0545103A1, “Insecticidal, acaricidal and molluscicidal 1-(substituted) thioalkylpyrroles” (priority 1991, dated 1993)
